From US20180200233A1, “COMPOSITIONS FOR PREVENTING CANCERS ASSOCIATED WITH HUMAN PAPILLOMA VIRUSES” (Loma Linda University, priority 2015, published 2018)

Columns and labels:
GST-E6/His-E6AP = biological target: T1, GST-E6/His-E6AP (Human papillomavirus type 16, UniProt P03126); test: AlphaScreen bead-based assay, GST-E6/His-E6AP binding; design: species or system HPV 16
T1 construct: made in house
Protocol: FIGS. 2A-C are graphs providing data regarding inhibition of protein-protein interactions by 3-(1H-indol-1yl)propan-1-amine (1), three benzimidazole derivatives (2-4), and spinacine (5). Compounds, at the indicated concentrations (1.4 μM to 3.2 mM) were tested using a bead-based screening assay for their ability to inhibit three different protein/protein interactions: (FIG. 2A) GST-E6/His-caspase 8; (FIG. 2B) GST-E6/HisE6AP; and (FIG. 2C) GST-caspase 8/His-caspase 8. Binding in the presence of 1.4 μM of the test compound was set at 100%. Experiments were performed in triplicate, and error bars indicate the standard deviation.
To determine the dose-responsiveness of these five compounds, variable concentrations of those small molecules were first tested for their ability to inhibit E6/caspase binding. […] These molecules, which had been selected for their ability to interfere with E6/caspase 8 binding, were then tested to determine if they could also affect other interactions of E6, such as its binding to E6-associated protein (E6AP). The E6/E6AP interaction is required for the E6-mediated acceleration of p53 degradation (Huibregtse, J. M., M. Scheffner, and P. M. Howley, A cellular protein mediates association of p53 with the E6 oncoprotein of human papillomavirus types 16 or 18. The EMBO journal, 1991. 10(13): p. 4129-35).
Alpha-Screen™ technology was used to assess the interactions between GST-E6, GST-caspase 8, His-E6AP, and His-caspase 8. Binding assays were performed in white 384-well plates (Perkin-Elmer) in a total volume of 25 μl as previously described (Tungteakkhun, S. S., et al., The interaction between human papillomavirus type 16 and FADD is mediated by a novel E6 binding domain. Journal of virology, 2008. 82(19): p. 9600-14). Briefly, 5 μl (50 ng) of GST-E6 and 5 μl (87.5 ng) of His-caspase 8 were included in each reaction mixture with 5 μl blocking buffer (0.5 mg BSA, 0.5% Tween 20 in PBS) in the absence or presence of 10 μM of each test chemical. Members of the library were present at […] in DMSO. After a one-hour incubation of the mixture at room temperature, 5 μl donor beads and 5 μl acceptor beads (Perkin-Elmer) were added to each well according to the manufacturer's protocol. The mixture was incubated in the dark at room temperature overnight, and the emitted signal was detected using the Envision Multilabel plate reader (Perkin-Elmer). In the presence of test chemicals, the binding affinity was calculated as a percentage of the binding in the presence of carrier only (DMSO).

SiHa cells = test: in vitro; format: cell-based, human
Protocol: FIGS. 3A-E are graphs providing data regarding resistance of HPV^+ SiHa cells to TRAIL-, cisplatin- and […] apoptosis, in the presence and absence of small molecules as disclosed herein. (FIG. 3A) HPV^+ SiHa cells are resistant to TRAIL-induced apoptosis as compared to the human osteosarcoma cell line U2OS. Cells (2×10^4 cells per well) were seeded into a 96-well plate, allowed to incubate overnight, and then treated with indicated concentration of TRAIL in the presence of cycloheximide (5 μg/ml). The viability of cells was measured after overnight incubation using the MTT assay; the viability of cells untreated with TRAIL was set at 100% for each group. (FIG. 3B) The indicated concentrations of three small molecules were added to SiHa cells, and an MTT assay was preformed after overnight incubation. The viability of cells untreated with small molecules was set as 100%. (FIG. 3C) The indicated concentrations of myricetin or spinacine were added 4 h prior to TRAIL (100 ng/ml) in the presence of cycloheximide (5 μg/ml) and incubated at 37° C. overnight. The viability of cells untreated with small molecules was set at 100%. (FIG. 3D and FIG. 3E) SiHa cells (2×10^4 cells per well) were seeded into a 96-well plate and allowed to incubate overnight. 100 μM of myricetin and 50 μM of spinacine were added 4 h prior to either (FIG. 3D) doxorubicin or (FIG. 3E) cisplatin. Cell viability was measured after overnight incubation using the MTT assay, and the viability of cells untreated with either myricetin or spinacine was set at 100%. Experiments were performed in triplicate, and error bars indicate the standard deviation.
The molecules were then tested to determine whether those that block E6/caspase 8 binding in vitro could also act in the context of a cell. SiHa cells are an HPV^+ cell line, derived from a cervical carcinoma, which serves as a commonly used model for HPV-associated malignancies. To determine whether HPV^+ SiHa cells are resistant to TRAIL-induced apoptosis, SiHa cells were treated with TRAIL and cell viability was assessed. TRAIL-sensitive, HPV^− U2OS cells served as a positive control. […] Myricetin and/or spinacine were tested to determine if they could sensitize these HPV^+ cells to TRAIL-induced apoptosis. […] Table 2 lists and compares the concentrations of the three tested compounds required to induce death in 50% of SiHa cells in the presence or absence of TRAIL.
The extracellular domain of human TRAIL was cloned into a pTriEx expression plasmid containing N-terminal Hisx6 tag. His-TRAIL was expressed in the E. coli BL-21 pLys strain and purified as previously described. Doxorubicin and cisplatin were purchased from Sigma. His-TRAIL, doxorubicin, and cisplatin were diluted in PBS to the desired concentration before using. To measure cell survival following treatment with TRAIL, cisplatin and doxorubicin, SiHa (2×10^4/well), C33A (1×10^4/well), and HNSCC cells (2×10^4/well) were seeded into 96-well plates and allowed to adhere overnight. Small molecules at the desired concentration were added and incubated at 37° C. for 4 h. As indicated, TRAIL, cisplatin or doxorubicin was then added. […] All experiments were repeated at least three times (three biological replicates, carried out on different days), with each experimental group measured in triplicate within each of these individual experiments. […]

T1 sequence (P03126 whole entry): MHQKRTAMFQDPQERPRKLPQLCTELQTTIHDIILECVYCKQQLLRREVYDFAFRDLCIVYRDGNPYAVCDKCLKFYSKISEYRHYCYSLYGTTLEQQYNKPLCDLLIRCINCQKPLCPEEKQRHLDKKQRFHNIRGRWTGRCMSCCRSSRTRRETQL

| SMILES | EC50 for GST-E6/His-E6AP interaction (GST-E6/His-E6AP; bead-based assay, compounds tested 1.4 μM to 3.2 mM) | inhibition of E6/E6AP interaction (in words) (GST-E6/His-E6AP; FIG. 2B) | toxicity to SiHa cells in the absence of TRAIL (in words) (SiHa cells) |
| --- | --- | --- | --- |
| OCn1cnc2ccccc21 [Compound 3, 1H-benzimidazole-1-methanol] | No Inhibition | – | – |
| O=C(O)C1Cc2[nH]cnc2CN1 (stereo not shown) [Compound 5, 4,5,6,7-Tetrahydro-1H-imidazo(4,5-c)pyridine-6-carboxylic acid] | – | could also inhibit the E6/E6AP interaction | low toxicity |
| O=c1c(O)c(-c2cc(O)c(O)c(O)c2)oc2cc(O)cc(O)c12 [Myricetin, reference compound] | – | – | low toxicity |
